Assays:
CXCR4 = target: T1, CXCR4 (Homo sapiens, UniProt P61073); experiment: Inositol 1 phosphate (IP1) accumulation assay (HTRF) in COS-7 cells transfected with CXCR4; format: cell-based; conditions: COS-7 transiently co-transfected with CXCR4-eYFP and chimeric GαΔ6qi4myr; 10^-12 to 10^-5 M, 1 h, 37 °C; HTRF; n ≥ 2
T1 construct: expressed in transfected cells; host or cells: COS-7 (African green monkey), transient co-transfection with GαΔ6qi4myr
In short: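 COS-7 cells transiently co-transfected with CXCR4-eYFP and chimeric GαΔ6qi4myr were stimulated 1 h at 37 °C in HBSS with 20 mM LiCl; final ligand 10^–12 to 10^–5 M CXCL12, 1 or 10 μM TFF3 forms. IP1 measured by competitive HTRF (665/620 ratio), normalized to CXCL12 response.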

[1] = Stability in simulated intestinal fluid (SIF); format: in vitro ADME; conditions: pig, simulated intestinal fluid (SIF) with porcine pancreatin, pH 6.8, 15 μL of 1 mM peptide stock in 285 μL SIF, 37 °C, samples 0 min-24 h quenched with 5% aqueous TFA, RP-HPLC/LC-MS peak area as % of time 0, exponential one-phase decay fit, read-out: t1/2 in SIF
In short: (§1)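 Peptides incubated at 37 °C in SGF (pepsin, pH 1.3) or SIF (porcine pancreatin, pH 6.8), sampled from 0 min to 24 h. Remaining peptide quantified by RP-HPLC peak area as % of time 0, with t1/2 from one-phase exponential decay fit. Metabolites identified by LC-MS.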

[2] = Stability in simulated gastric fluid (SGF); format: in vitro ADME, porcine; conditions: simulated gastric fluid (SGF) with pepsin, pH 1.3, 15 μL of 1 mM peptide stock in 285 μL SGF, 37 °C, samples 0 min-24 h quenched with 0.2 M Na2CO3, RP-HPLC/LC-MS peak area as % of time 0, exponential one-phase decay fit, read-out: t1/2 in SGF
In short: as §1

T1 sequence (P61073 whole entry): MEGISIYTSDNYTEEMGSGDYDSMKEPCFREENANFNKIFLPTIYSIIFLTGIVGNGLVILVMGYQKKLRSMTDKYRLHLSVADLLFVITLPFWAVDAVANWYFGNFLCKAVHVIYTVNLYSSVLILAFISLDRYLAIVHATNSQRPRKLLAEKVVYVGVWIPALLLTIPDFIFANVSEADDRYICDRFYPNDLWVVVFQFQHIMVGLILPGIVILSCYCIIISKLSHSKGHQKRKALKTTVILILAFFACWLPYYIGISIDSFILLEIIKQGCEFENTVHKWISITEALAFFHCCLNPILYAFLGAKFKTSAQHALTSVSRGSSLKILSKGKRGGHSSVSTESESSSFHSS

CC[C@H](C)[C@@H]1NC(=O)[C@H](CCCNC(=N)N)NC(=O)[C@H](CO)NC(=O)[C@H](CC(=O)O)NC(=O)[C@H](Cc2ccccc2)NC(=O)[C@@H]2CSSC[C@H](NC(=O)[C@H](CCC(N)=O)NC(=O)[C@H](CC(N)=O)NC(=O)[C@H](C)NC(=O)[C@H](CO)NC(=O)[C@H](CC(C)C)NC(=O)CNC(=O)[C@@H](NC(=O)[C@H](Cc3ccc(O)cc3)NC(=O)[C@H](CCC(=O)O)NC(=O)[C@@H](N)CCC(=O)O)C(C)C)C(=O)N[C@@H](C)C(=O)N[C@@H](C(C)C)C(=O)N3CCC[C@H]3C(=O)N[C@@H](C)C(=O)N[C@@H](CCCCN)C(=O)N[C@@H](CC(=O)O)C(=O)N[C@@H](CCCNC(=N)N)C(=O)N[C@@H](C(C)C)C(=O)N[C@@H](CC(=O)O)C(=O)N[C@H]3CSSC[C@H](NC(=O)CNC(=O)[C@H](CCCNC(=N)N)NC(=O)[C@H](CC(N)=O)NC(=O)[C@H](CC(N)=O)NC(=O)[C@H](CSSC[C@@H](C(=O)N[C@@H](Cc4ccccc4)C(=O)N[C@@H](CCCCN)C(=O)N4CCC[C@H]4C(=O)N[C@@H](CC(C)C)C(=O)N[C@@H](CCC(N)=O)C(=O)N[C@@H](CCC(=O)O)C(=O)N[C@@H](C)C(=O)N[C@@H](CCC(=O)O)C(=O)N[C@@H](CSCNC(C)=O)C(=O)N[C@H](C(=O)N[C@@H](Cc4ccccc4)C(=O)O)[C@@H](C)O)NC(=O)[C@H](Cc4c[nH]c5ccccc45)NC(=O)[C@@H]4CCCN4C(=O)[C@H](C(C)C)NC(=O)CNC(=O)[C@@H]4CCCN4C1=O)NC(=O)[C@H](CCC(=O)O)NC(=O)[C@H](CCCCN)NC(=O)[C@@H]1CCCN1C(=O)[C@H]([C@@H](C)O)NC(=O)[C@H](C(C)C)NC(=O)[C@H](Cc1c[nH]cn1)NC(=O)[C@@H]1CCCN1C(=O)[C@H](Cc1ccc(O)cc1)NC(=O)CNC3=O)C(=O)N2 [TFF3(C^57Acm)]
concentration up to which CXCR4 was not activated (agonism, IP1 accumulation) (CXCR4): > 10 µM | half-life at 50 μM [1]: < 5 min | half-life at 50 μM [2]: < 5 min
